What was measured:
Pyricularia oryzae = experiment: whole plant or invertebrate; format: in vivo; conditions: 100 is total disease control, 0 is no disease control; for Rice Blast (RB) protectant fungicide data, percent control: 300 g/ha, greenhouse; for pest or weed control at 300 g/ha: Pyricularia oryzae, topical, 144 h, read-out: Rice Blast (RB) protectant fungicide data, percent control, protectant, 300 g/ha, greenhouse
Sphaerotheca fuliginea = experiment: Cucumber Powdery Mildew (CPM) protectant test in the greenhouse; format: in vivo; conditions: 100 is total disease control, 0 is no disease control; for Cucumber Powdery Mildew (CPM) protectant fungicide data, percent control: 300 g/ha; for pest or weed control at 300 g/ha: Podosphaera fuliginea, topical, 168 h, read-out: Cucumber Powdery Mildew (CPM) protectant fungicide data, percent control
Experimental: Plants used in the fungicide testing program were grown in 2-¼-inch (5.7-cm). square pots containing RediEarth propagation substrate. The plants were raised under greenhouse conditions. The rice plants were 12-days-old and cucumbers were 13-days-old at the time of spraying with chemical treatments.
The sample of the experimental chemical was weighed and dissolved in an acetone-methanol-water solution (A/M/W at 1:1:2 ratio by volume).
After sprayer calibration, the test solutions were poured into the fungicide sprayer. The fungicide sprayer contains three spray nozzles, located approximately 10 cm above and to the sides of the plants. The spray produced by the nozzles results in uniform coverage of both the upper and lower parts of the plant leaves. After spraying, the treated plants were placed in a drying chamber for 4 hours, prior to sorting.
Cucumber Powdery Mildew (CPM), caused by the fungus Sphaerotheca fuliginea, was maintained on large cucumber plants. For inoculum preparation, five to eight leaves depending on size, completely covered with powdery mildew spores, were collected. The leaves were placed in a glass jar and covered with 500 ml of water, containing 5 drops of Tween-80. The material was filtered through two layers of cheesecloth to remove leaf fragments. The spore count was adjusted to 2×10^5 spores per ml.
Cucumber plants, cv. “Bush Champion,” were used for this test. The plants were thinned to one per pot after the cotyledons were fully developed. Two days before the test, the small leaves and meristem region were removed, leaving only the cotyledons and one large true leaf.
The protectant tests required that the cucumber plants be inoculated 1 day after spraying with the chemical treatment. The plants were inoculated with a hand-held spray bottle with the suspension of fungal spores. The leaves were lightly misted on the upper surface from two different spray directions. Disease development occurred in the greenhouse.
After seven days, the plants were evaluated for percent of disease control. The results are reported as percent control; 100 is total disease control, 0 is no disease control.

| Structure (SMILES) | Rice Blast (RB) protectant fungicide data, percent control (Pyricularia oryzae) | Cucumber Powdery Mildew (CPM) protectant fungicide data, percent control (Sphaerotheca fuliginea) | pest or weed control at 300 g/ha (Pyricularia oryzae) | pest or weed control at 300 g/ha (Sphaerotheca fuliginea) |
| --- | --- | --- | --- | --- |
| O=C1CNC(c2ccccc2Cl)=NN1CC(F)(F)F [Compound 97] | 0 percent control | 85 percent control | – | – |
| O=C1CNC(c2ccc(F)cc2)=NN1CC(F)(F)F [Compound 149] | 95 percent control | 75 percent control | – | – |
| CCCCn1nc(-c2ccccc2OC)ncc1=O [Compound 283] | 90 percent control | 50 percent control | – | – |
| CCCCN1N=C(C)NC(c2cccc(C)c2)C1=O (stereo not drawn) [Compound 77] | 0 percent control | 50 percent control | – | – |
| O=C1CNC(c2ccc(Cl)cc2)=NN1Cc1ccc(Cl)s1 [Compound 62] | 85 percent control | 0 percent control | – | – |
| CCCCCN1N=C(c2ccc(Cl)c(Cl)c2)NCC1=O [Compound 197] | 99 percent control | 75 percent control | – | – |
| CCCCN1N=C(c2cc(C)cc(C)c2)NCC1=O [Compound 295] | 99 percent control | 50 percent control | – | – |
| CCCCN1N=C(c2ccccc2OC)NCC1=O [Compound 195] | 99 percent control | 50 percent control | – | – |
| CCCCN1N=C(c2ccc(Cl)c(Cl)c2)N(CC2CCC2)CC1=O [Compound 201] | 85 percent control | 0 percent control | – | – |
| O=C1CNC(c2ccc(Cl)cc2)=NN1c1ccccc1 [Compound 28] | 85 percent control | 85 percent control | – | – |
| CCCCN1N=C(c2cc(Cl)cc(Cl)c2)N(C(=O)Oc2ccccc2)CC1=O [Compound 194] | 80 percent control | 0 percent control | – | – |
| COC(=O)N1CC(=O)N(CC(F)(F)F)N=C1c1cc(Cl)cc(Cl)c1 [Compound 71] | 75 percent control | 50 percent control | – | – |
| CCCCN1N=C(C)NC(c2cccc(N)c2)C1=O (stereo not drawn) [Compound 78] | 0 percent control | 25 percent control | – | – |
| CCCCn1nc(-c2ccccc2O)ncc1=O [Compound 287] | 80 percent control | 0 percent control | – | – |
| O=C1CNC(c2ccc3ccccc3c2)=NN1 [Compound 124] | 75 percent control | 0 percent control | – | – |
| CCOC(=O)CN1N=C(c2cccc(C)c2)NCC1=O [Compound 165] | 80 percent control | 0 percent control | – | – |
| CCCCCN1N=C2C=CC(c3ccc(Cl)cc3)=NN2CC1=O [Compound 24, 2-Pentyl-7-(4-chlorophenyl)-pyridazino[6,1-c][1,2,4]triazin-3(4H)one] | – | – | 0% | 50% |
| CCCCN1N=C(C)NC(c2ccccc2)C1=O (stereo not drawn) [Compound 92] | 0 percent control | 50 percent control | – | – |
| CCCCN1N=C(c2cccc(C#N)c2)NCC1=O [Compound 175] | 95 percent control | 0 percent control | – | – |
| CN1N=C(c2ccccc2)NCC1=O [Compound 31] | 50 percent control | 0 percent control | – | – |
| CN1N=C(c2ccc(Oc3ccccc3)cc2)NCC1=O [Compound 156] | 85 percent control | 0 percent control | – | – |

| Structure (SMILES) | Rice Blast (RB) protectant fungicide data, percent control (Pyricularia oryzae) | Cucumber Powdery Mildew (CPM) protectant fungicide data, percent control (Sphaerotheca fuliginea) | pest or weed control at 300 g/ha (Pyricularia oryzae) | pest or weed control at 300 g/ha (Sphaerotheca fuliginea) |
| --- | --- | --- | --- | --- |
| CCCCN1N=C(c2ccc(F)c(Cl)c2)NCC1=O [Compound 106] | 100 percent control | 95 percent control | – | – |
| O=c1cnc(-c2ccccc2)n[nH]1 [Compound 243] | 75 percent control | 0 percent control | – | – |
| CCCCN1N=C(c2cccc(C3=NN(CCCC)C(=O)CN3)c2)NCC1=O [Compound 232] | 100 percent control | 99 percent control | – | – |
| COc1ccc(C2=NN(CC(F)(F)F)C(=O)CN2)cc1 [Compound 35] | 50 percent control | 50 percent control | – | – |
| O=C1CN(CC=CCl)C(c2cc(Cl)cc(Cl)c2)=NN1CC=CCl (mixture of isomers) [Compound 66] | 50 percent control | 0 percent control | – | – |
| CCCCN1N=C(c2cccc(Br)c2)NCC1=O [Compound 211] | 100 percent control | 85 percent control | – | – |
| CCCCN1N=C(c2ccc(F)c(Br)c2)NCC1=O [Compound 207] | 100 percent control | 85 percent control | – | – |
| CCCCN1N=C(c2ccccc2O)NCC1=O [Compound 83, 1-n-Butyl-3-(2-hydroxyphenyl)-4,5-dihydro-1,2,4-triazin-6-one] | – | – | 80% | 0% |
| C#CCSC(=S)N1CC(=O)N(CCCC)N=C1c1ccc(Cl)c(Cl)c1 [Compound 192] | 99 percent control | 75 percent control | – | – |
| CCCCCCN1N=C(c2ccc(Cl)cc2)NCC1=O [Compound 55] | 90 percent control | 50 percent control | – | – |
| Cc1cccc(N2N=C(c3ccc(-c4ccccc4)cc3)NCC2=O)c1 [Compound 186] | 85 percent control | 0 percent control | – | – |
| CCOC(=O)CN1N=C(c2ccc(Cl)c(Cl)c2)NCC1=O [Compound 102] | 85 percent control | 50 percent control | – | – |
| FC(F)(F)Cn1nc(-c2cccc(Cl)c2)ncc1=S [Compound 246] | 100 percent control | 0 percent control | – | – |
| CCCCN1N=C(c2ccc(Cl)cc2Cl)NCC1=O [Compound 2, 1-butyl-3-(2,4-dichlorophenyl)-4,5-dihydro-1,2,4-triazin-6-one] | – | – | 95% | 85% |
| N#CCCN1N=C(c2ccc(-c3ccc([N+](=O)[O-])cc3)cc2)NCC1=O [Compound 166] | 75 percent control | 0 percent control | – | – |
| O=C1CNC(c2ccc(Cl)c(Cl)c2)=NN1 [Compound 174] | 75 percent control | 0 percent control | – | – |
| CCCCN1N=C(c2cc(Cl)cc(Cl)c2)N(C(=O)OCOC(C)=O)CC1=O [Compound 118] | 90 percent control | 0 percent control | – | – |
| N#CCN1N=C(c2ccc(Cl)cc2)NCC1=O [Compound 60] | 75 percent control | 0 percent control | – | – |
| C#CCN1N=C(c2cccc(C(F)(F)F)c2)NCC1=O [Compound 88] | 100 percent control | 50 percent control | – | – |
| CCCCN1N=C(c2ccc(Cl)c(Cl)c2)N(C(=S)Oc2ccccc2)CC1=O [Compound 178] | 75 percent control | 0 percent control | – | – |
| C#CCN1CC(=O)N(CCCC)N=C1c1ccc(Cl)c(Cl)c1 [Compound 168] | 95 percent control | 50 percent control | – | – |
